{"source": "paper PMC11191095", "about": "“QSAR Reveals Decreased Lipophilicity of Polar Residues Determines the Selectivity of Antimicrobial Peptide Activity” (ACS Omega, 2024)", "test_in_all_cases": "microbe, parasite or virus in culture", "key": {"E. coli LEC001": {"system": "E. coli LEC001", "assay_type": "cell-based, Escherichia coli", "conditions": "E. coli LEC001 (R)", "procedure,_shortened": "(§1)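 Peptides 128→2 μg/mL, 2-fold series; inoculum ~5 × 10^5 CFU/mL from overnight culture (OD600 0.01, mixed 1:1). MHB non-cation-adjusted for bacteria, RPMI 1640 + 2% glucose for fungi. 37 °C, 20 h, OD600. MIC50/MIC90 at 50%/90% inhibition; n ≥ 3.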"}, "E. coli NCTC 12923": {"system": "E. coli NCTC 12923", "assay_type": "cell-based, Escherichia coli", "conditions": "E. coli NCTC 12923 (S)", "procedure,_shortened": "as §1"}, "P. aeruginosa NCTC 13437": {"system": "P. aeruginosa NCTC 13437", "assay_type": "cell-based, Pseudomonas aeruginosa", "conditions": "P. aeruginosa NCTC 13437 (R)", "procedure,_shortened": "as §1"}, "A. baumannii ATCC 17978": {"system": "A. baumannii ATCC 17978", "assay_type": "cell-based, Acinetobacter baumannii", "conditions": "A. baumannii ATCC 17978 (S)", "procedure,_shortened": "as §1"}, "A. baumannii AYE": {"system": "A. baumannii AYE", "assay_type": "cell-based, Acinetobacter baumannii", "conditions": "A. baumannii AYE (R)", "procedure,_shortened": "as §1"}, "K. pneumoniae M6": {"system": "K. pneumoniae M6", "assay_type": "cell-based, Klebsiella pneumoniae", "conditions": "K. pneumoniae M6 (S)", "procedure,_shortened": "as §1"}, "K. pneumoniae NCTC 13368": {"system": "K. pneumoniae NCTC 13368", "assay_type": "cell-based, Klebsiella pneumoniae", "conditions": "K. pneumoniae NCTC 13368 (R)", "procedure,_shortened": "as §1"}, "S. aureus (MRSA) 1199B": {"system": "S. aureus (MRSA) 1199B", "assay_type": "cell-based, Staphylococcus aureus", "conditions": "S. aureus (MRSA) 1199B (R)", "procedure,_shortened": "as §1"}, "[1]": {"system": "S. aureus (MRSA) NCTC 13616", "assay_type": "cell-based, Staphylococcus aureus", "conditions": "S. aureus (MRSA) NCTC 13616 (R)", "procedure,_shortened": "as §1"}, "S. aureus (MRSA) USA300": {"system": "S. aureus (MRSA) USA300", "assay_type": "cell-based, Staphylococcus aureus", "conditions": "S. aureus (MRSA) USA300 (R)", "procedure,_shortened": "as §1"}, "[2]": {"system": "S. aureus (MSSA) ATCC 9144", "assay_type": "cell-based, Staphylococcus aureus", "conditions": "S. aureus (MSSA) ATCC 9144 (S)", "procedure,_shortened": "as §1"}, "C. auris TDG 1912": {"system": "C. auris TDG 1912", "assay_type": "cell-based, Candida auris", "conditions": "C. auris TDG 1912", "procedure,_shortened": "as §1"}, "C. albicans NCPF 3281": {"system": "C. albicans NCPF 3281", "assay_type": "cell-based", "conditions": "C. albicans NCPF 3281", "procedure,_shortened": "as §1"}, "C. glabrata NCPF 8018": {"system": "C. glabrata NCPF 8018", "assay_type": "cell-based", "conditions": "C. glabrata NCPF 8018", "procedure,_shortened": "as §1"}, "C. krusei NCPF 3876": {"system": "C. krusei NCPF 3876", "assay_type": "cell-based", "conditions": "C. krusei NCPF 3876", "procedure,_shortened": "as §1"}, "[3]": {"system": "C. parapsilosis NCPF 3209", "assay_type": "cell-based", "conditions": "C. parapsilosis NCPF 3209", "procedure,_shortened": "as §1"}, "[4]": {"conditions": "MHB, 37 °C, 20 h, OD600, min. three biological repeats"}, "[5]": {"conditions": "50% growth inhibition, RPMI 1640 + 2% glucose, 37 °C, 20 h"}, "[6]": {"conditions": "90% growth inhibition, RPMI 1640 + 2% glucose, 37 °C, 20 h"}}, "note": "Where a SMILES comes first, the peptide text is derived from it."}
{"smiles": "CC[C@H](C)[C@H](NC(=O)[C@@H](N)Cc1c[nH]c2ccccc12)C(=O)N[C@@H](CCCCN)C(=O)N[C@@H](CO)C(=O)N[C@H](C(=O)N[C@@H](C)C(=O)N[C@@H](CCCCN)C(=O)N[C@@H](CCCCN)C(N)=O)[C@@H](C)O", "note": "[Opis8a] (H-WIKSTAKK-NH2)", "values": [{"measurement": "Modal MIC", "setting": "E. coli LEC001; [4]", "value": "> 128", "unit": "µg/mL"}, {"measurement": "Modal MIC", "setting": "E. coli LEC001; shown in µM", "value": "> 133.2", "unit": "µM"}, {"measurement": "Modal MIC", "setting": "E. coli NCTC 12923; MHB, ~5×10^5 CFU/mL, 37 °C, 20 h, OD600, min. three biological repeats", "value": "> 128", "unit": "µg/mL"}, {"measurement": "Modal MIC", "setting": "E. coli NCTC 12923; shown in µM", "value": "> 133.2", "unit": "µM"}, {"measurement": "Modal MIC", "setting": "P. aeruginosa NCTC 13437; [4]", "value": "> 128", "unit": "µg/mL"}, {"measurement": "Modal MIC", "setting": "P. aeruginosa NCTC 13437; shown in µM", "value": "> 133.2", "unit": "µM"}, {"measurement": "Modal MIC", "setting": "A. baumannii ATCC 17978; [4]", "value": "> 128", "unit": "µg/mL"}, {"measurement": "Modal MIC", "setting": "A. baumannii ATCC 17978; shown in µM", "value": "> 133.2", "unit": "µM"}, {"measurement": "Modal MIC", "setting": "A. baumannii AYE; [4]", "value": "> 128", "unit": "µg/mL"}, {"measurement": "Modal MIC", "setting": "A. baumannii AYE; shown in µM", "value": "> 133.2", "unit": "µM"}, {"measurement": "Modal MIC", "setting": "K. pneumoniae M6; [4]", "value": "> 128", "unit": "µg/mL"}, {"measurement": "Modal MIC", "setting": "K. pneumoniae M6; shown in µM", "value": "> 133.2", "unit": "µM"}, {"measurement": "Modal MIC", "setting": "K. pneumoniae NCTC 13368; [4]", "value": "> 128", "unit": "µg/mL"}, {"measurement": "Modal MIC", "setting": "K. pneumoniae NCTC 13368; shown in µM", "value": "> 133.2", "unit": "µM"}, {"measurement": "Modal MIC", "setting": "S. aureus (MRSA) 1199B; [4]", "value": "> 128", "unit": "µg/mL"}, {"measurement": "Modal MIC", "setting": "S. aureus (MRSA) 1199B; shown in µM", "value": "> 133.2", "unit": "µM"}, {"measurement": "Modal MIC", "setting": "[1]; [4]", "value": "> 128", "unit": "µg/mL"}, {"measurement": "Modal MIC", "setting": "[1]; shown in µM", "value": "> 133.2", "unit": "µM"}, {"measurement": "Modal MIC", "setting": "S. aureus (MRSA) USA300; [4]", "value": "> 128", "unit": "µg/mL"}, {"measurement": "Modal MIC", "setting": "S. aureus (MRSA) USA300; shown in µM", "value": "> 133.2", "unit": "µM"}, {"measurement": "Modal MIC", "setting": "[2]; [4]", "value": "> 128", "unit": "µg/mL"}, {"measurement": "Modal MIC", "setting": "[2]; shown in µM", "value": "> 133.2", "unit": "µM"}, {"measurement": "Modal MIC50", "setting": "C. auris TDG 1912; 50% growth inhibition, RPMI 1640 + 2% glucose, 37 °C, 20 h, OD600", "value": "> 128", "unit": "µg/mL"}, {"measurement": "Modal MIC90", "setting": "C. auris TDG 1912; 90% growth inhibition, RPMI 1640 + 2% glucose, 37 °C, 20 h, OD600", "value": "> 128", "unit": "µg/mL"}, {"measurement": "Modal MIC50", "setting": "C. auris TDG 1912; shown in µM", "value": "> 133.2", "unit": "µM"}, {"measurement": "Modal MIC90", "setting": "C. auris TDG 1912; shown in µM", "value": "> 133.2", "unit": "µM"}, {"measurement": "Modal MIC50", "setting": "C. albicans NCPF 3281; [5]", "value": "> 128", "unit": "µg/mL"}, {"measurement": "Modal MIC90", "setting": "C. albicans NCPF 3281; [6]", "value": "> 128", "unit": "µg/mL"}, {"measurement": "Modal MIC50", "setting": "C. albicans NCPF 3281; shown in µM", "value": "> 133.2", "unit": "µM"}, {"measurement": "Modal MIC90", "setting": "C. albicans NCPF 3281; shown in µM", "value": "> 133.2", "unit": "µM"}, {"measurement": "Modal MIC50", "setting": "C. glabrata NCPF 8018; [5]", "value": "> 128", "unit": "µg/mL"}, {"measurement": "Modal MIC90", "setting": "C. glabrata NCPF 8018; [6]", "value": "> 128", "unit": "µg/mL"}, {"measurement": "Modal MIC50", "setting": "C. glabrata NCPF 8018; shown in µM", "value": "> 133.2", "unit": "µM"}, {"measurement": "Modal MIC90", "setting": "C. glabrata NCPF 8018; shown in µM", "value": "> 133.2", "unit": "µM"}, {"measurement": "Modal MIC50", "setting": "C. krusei NCPF 3876; [5]", "value": "> 128", "unit": "µg/mL"}, {"measurement": "Modal MIC90", "setting": "C. krusei NCPF 3876; [6]", "value": "> 128", "unit": "µg/mL"}, {"measurement": "Modal MIC50", "setting": "C. krusei NCPF 3876; shown in µM", "value": "> 133.2", "unit": "µM"}, {"measurement": "Modal MIC90", "setting": "C. krusei NCPF 3876; shown in µM", "value": "> 133.2", "unit": "µM"}, {"measurement": "Modal MIC50", "setting": "[3]; [5]", "value": "> 128", "unit": "µg/mL"}, {"measurement": "Modal MIC90", "setting": "[3]; [6]", "value": "> 128", "unit": "µg/mL"}, {"measurement": "Modal MIC50", "setting": "[3]; shown in µM", "value": "> 133.2", "unit": "µM"}, {"measurement": "Modal MIC90", "setting": "[3]; shown in µM", "value": "> 133.2", "unit": "µM"}]}
